This note sets out measurements from US20090123377A1, “Method for Testing Substances or Mixtures of Substances,Use of Said Method and Corresponding Test Kits” (BASF AKTIENGESELLSCHAFT, priority 2005, published 2009).

In data set [1] the test system is L-FABP. The settings on record: rat, in vivo.
For data set [2], the system named is liver fatty acid binding protein (L-FABP). The data set is described as follows: Proteomic analysis (2D gel electrophoresis) of L-FABP expression in liver of exposed rats. The settings on record: for L-FABP (PHEN_M_ID=3368, ETHI_F_ID=4302, HEXA_F_ID=4425) spot under the influence of treatment: 2D gel, rat liver, after 10 d (RUN2), PHEN_M male, ETHI_F and HEXA_F female rats; for amount of L-FABP in the liver, early change: after only a few hours of exposure, male animals (phenobarbital), females (alpha-hexachlorocyclohexane); for expression in the liver of L-FABP (ETHI_F_ID 4302) compared with the controls: longer exposure time and higher dosage, dose-dependent, statistical analysis of 2D gels.

Data set [3] shares this test system. The settings on record: rat, in vivo.

Read-outs that look alike come from different tables or passages of the source.

Turning to `Cc1ccc(N)cc1N` [2,4-diaminotoluene], the “L-FABP level by Western blotting” value in data set [1] is reported as “no change in the L-FABP level”.
The same measure, in the same setting: in the case of `c1ccoc1` [furan] it was “decrease in L-FABP”.
Still for that read-out and setting: to `Cc1c(N)cccc1N` [2,6-diaminotoluene] belongs “no change in the L-FABP level”.
On the same count and under the same terms, to `ClC(Cl)(Cl)Cl` [tetrachloromethane] belongs “decrease in L-FABP”.
As to `CCC1(c2ccccc2)C(=O)NC(=O)NC1=O` [phenobarbital], in data set [2], the “L-FABP (PHEN_M_ID=3368, ETHI_F_ID=4302, HEXA_F_ID=4425) spot under the influence of treatment” value was “disappears”; the “amount of L-FABP in the liver, early change” value is “changed”; the “expression in the liver of L-FABP (ETHI_F_ID 4302) compared with the controls” value is “significantly less expression”. In data set [1], the “L-FABP level by Western blotting” value is listed as “confirm the results of the proteomic analysis”.
In the same order, the values of `Cl[C@H]1[C@H](Cl)[C@H](Cl)[C@@H](Cl)[C@H](Cl)[C@H]1Cl` [alpha-hexachlorocyclohexane] are “disappears”, “changed”, “significantly less expression” and “confirm the results of the proteomic analysis”.
Take `C#C[C@]1(O)CC[C@H]2[C@@H]3CCc4cc(O)ccc4[C@H]3CC[C@@]21C` [ethinylestradiol]: in data set [3], the “L-FABP (PHEN_M_ID=3368, ETHI_F_ID=4302, HEXA_F_ID=4425) spot under the influence of treatment” value was “disappears” and the “expression in the liver of L-FABP (ETHI_F_ID 4302) compared with the controls” value was “significantly less expression”.
